Experimental data taken from PubChem BioAssay (NCI).
Where “and” joins values, the source holds several entries; their conditions need not be identical. Equal values may be shown once.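 These data come from cells grown in 96-well plates and exposed to compound for 48 hours at five concentrations. Here, GI50 denotes the concentration required for 50% inhibition of growth. At the TGI there is no net growth.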

Key:
Experiment in all cases: NCI tumour cell line growth inhibition, 48 h
OVCAR-5 ovarian = system: OVCAR-5 ovarian
OVCAR-3 ovarian = system: OVCAR-3 ovarian
SK-MEL-28 melanoma = system: SK-MEL-28 melanoma
NCI-H522 lung = system: NCI-H522 lung
MOLT-4 leukemia = system: MOLT-4 leukemia
T-47D breast = system: T-47D breast
NCI-H23 lung = system: NCI-H23 lung
MALME-3M melanoma = system: MALME-3M melanoma
MDA-MB-435 = system: MDA-MB-435
RXF 393 renal = system: RXF 393 renal

SMILES	GI50 (OVCAR-5 ovarian)	TGI (OVCAR-5 ovarian)	GI50 (OVCAR-3 ovarian)	TGI (OVCAR-3 ovarian)	GI50 (SK-MEL-28 melanoma)	TGI (SK-MEL-28 melanoma)	GI50 (NCI-H522 lung)	TGI (NCI-H522 lung)	GI50 (MOLT-4 leukemia)	TGI (MOLT-4 leukemia)	GI50 (T-47D breast)	TGI (T-47D breast)	GI50 (NCI-H23 lung)	TGI (NCI-H23 lung)	GI50 (MALME-3M melanoma)	TGI (MALME-3M melanoma)	GI50 (MDA-MB-435)	TGI (MDA-MB-435)	GI50 (RXF 393 renal)	TGI (RXF 393 renal)
O=C1NC(=NC(CO)Cc2ccccc2)S/C1=C\c1ccc2ncccc2c1 (stereo not drawn)	> 25 µM and 6.83 µM	> 25 µM	19.8 µM and 2.73 µM	> 25 µM and 11.8 µM	> 23.7 µM and 7.24 µM	> 25 µM and 24.4 µM	8.38 µM and 2.85 µM	> 25 µM and 10 µM	12.2 µM and 7.45 µM	> 25 µM and 18.7 µM	21.1 µM and 5.26 µM	> 25 µM	17.7 µM and 2.23 µM	> 25 µM	12 µM and 6.19 µM	> 25 µM	6.21 µM and 2.54 µM	> 25 µM	11.5 µM and 3.82 µM	> 25 µM and 10.7 µM
COc1cccc(C2SC(N)=Nc3c2c(C)nn3C(=O)c2ccccc2O)c1 (stereo not drawn)	–	> 10 µM	–	> 7.61 µM	–	> 10 µM	–	> 10 µM	–	> 10 µM	–	> 10 µM	–	> 10 µM	–	> 10 µM	–	> 10 µM	–	> 10 µM
Nc1c(C(=O)Nc2cccc(C(F)(F)F)c2)sc2nc3c(cc12)CCCCC3	3.43 µM	17.3 µM	2.84 µM	11.5 µM	3.73 µM	23.6 µM	2.52 µM	17.7 µM	15 µM	51.6 µM	1.55 µM	8.31 µM	1.72 µM	10.9 µM	3 µM	9.49 µM	2.53 µM	63.1 µM	1.84 µM	4.86 µM
CC1(C)OC1COc1c2occc2cc2ccc(=O)oc12 (stereo not drawn)	–	> 100 µM	–	> 100 µM	–	> 100 µM	–	> 100 µM	–	> 100 µM	–	> 100 µM	–	> 100 µM	–	> 100 µM	–	> 100 µM	–	> 100 µM
O=C(O)c1ccc2c(c1C(=O)O)C(=O)OC2(c1ccc(O)cc1)c1ccc(O)cc1	–	> 100 µM	–	> 100 µM	–	> 100 µM	–	> 100 µM	–	> 100 µM	–	> 100 µM	–	> 100 µM	–	> 100 µM	–	> 100 µM	–	> 100 µM
CN(C)CC1CC/C(=C\c2ccc(O)cc2)C1=O (stereo not drawn)	–	31.6 µM	–	8.33 µM	–	6.08 µM	–	3.17 µM	–	5.29 µM	–	5.34 µM	–	13.2 µM	–	6.62 µM	–	10.8 µM	–	4.8 µM
O=C1CCCCN1c1ccccc1C#C/C=C\C#Cc1ccccc1C(F)(F)F	3.35 µM	> 50 µM	0.879 µM	2.4 µM	1.09 µM	3.36 µM	1.19 µM	3.1 µM	1.59 µM	6.96 µM	> 50 µM	> 50 µM	1.26 µM	4 µM	2.29 µM	39.2 µM	0.603 µM	1.8 µM	0.526 µM	2.73 µM
CC(C)[C@@H]1C=C2CC[C@H]3[C@](C)(CN)CCC[C@]3(C)[C@H]2CC1	2.22 µM	5.38 µM	2.8 µM	9.22 µM	16.9 µM	30.7 µM	1.91 µM	4.16 µM	2.35 µM	6.03 µM	1.99 µM	4.61 µM	1.94 µM	4.09 µM	3.9 µM	19.3 µM	1.98 µM	4.2 µM	1.77 µM	3.56 µM
Nc1n[nH]c2cccc(C#Cc3cccc(C(=O)Nc4ccc(CN5CCOCC5)c(C(F)(F)F)c4)c3)c12	2.52 µM	19.8 µM	3.48 µM	12.6 µM	1.88 µM	7.08 µM	2.52 µM	9.28 µM	1.4 µM	4.24 µM	1.18 µM	5.76 µM	2.1 µM	11.3 µM	0.446 µM	2.69 µM	2.22 µM	10.5 µM	1.53 µM	3.44 µM
c1ccc(Sc2ncnc3ccccc23)cc1	19.2 µM	37.2 µM	14.6 µM	28 µM	23.7 µM	89.2 µM	7.19 µM	29.1 µM	4.98 µM	36 µM	9.72 µM	28.4 µM	8.52 µM	25.7 µM	10.8 µM	29.8 µM	8.19 µM	32.5 µM	13.4 µM	27.1 µM
O=C(O)c1nc2nc(Cl)c(Cl)nc2[nH]1	–	> 100 µM	–	> 100 µM	–	> 100 µM	–	> 100 µM	–	> 100 µM	–	> 100 µM	–	> 100 µM	–	> 100 µM	–	> 100 µM	–	> 100 µM
O=C(/C(=C/c1ccc([N+](=O)[O-])cc1)SCc1ccccc1)c1ccc(Cl)cc1	2.98 µM	11.9 µM	1.91 µM	4.29 µM	4.09 µM	15.3 µM	3.96 µM	10.5 µM	2.61 µM	> 100 µM	2.41 µM	7.46 µM	3.14 µM	14.1 µM	3.12 µM	11.7 µM	3.22 µM	11.4 µM	1.68 µM	3.47 µM
N#CC(C#N)=C/C=C(\Sc1nc2ccccc2s1)c1ccc(Cl)cc1	7.02 µM	21.5 µM	4.77 µM	22.9 µM	5.34 µM	21.7 µM	10.1 µM	41.9 µM	0.565 µM	–	–	> 33 µM	3.56 µM	13.2 µM	5.29 µM	16.5 µM	2.86 µM	11.1 µM	7.59 µM	25.9 µM
Cc1cc(I)cc(CN(CCCN(C)C)C(C)C)c1O	19.7 µM	53.5 µM	18.8 µM	34.8 µM	16.5 µM	34.3 µM	16 µM	31.4 µM	16.3 µM	34.7 µM	15.2 µM	39.8 µM	31.4 µM	> 100 µM	21.6 µM	40.8 µM	17.3 µM	35.9 µM	16 µM	46.8 µM
CC(=O)CC(OC(C)=O)C1=CCC2C(CC1C)OC(=O)C2C (stereo not drawn)	–	> 100 µM	–	> 100 µM	–	> 100 µM	–	> 100 µM	–	> 100 µM	–	> 100 µM	–	> 100 µM	–	> 100 µM	–	> 100 µM	–	> 100 µM
CC1(COc2ccc3c(c2)ncn3-c2ccc3cccc(N4CCC(N)CC4)c3n2)COC1	3.26 µM and 2.57 µM	12.8 µM and > 10 µM	2.35 µM and 2.99 µM	4.73 µM and > 10 µM	3.5 µM and 3.37 µM	9.34 µM and 8.36 µM	1.21 µM and 1.6 µM	3.3 µM and 5.19 µM	1.56 µM and 1.51 µM	5.71 µM and 5.97 µM	15.9 µM and > 10 µM	30.5 µM and > 10 µM	2.13 µM and 1.94 µM	8.59 µM and 5.28 µM	3.23 µM and 1.86 µM	6.46 µM and 3.74 µM	3.06 µM and 3.25 µM	10.5 µM and > 10 µM	1.32 µM and 0.893 µM	3.3 µM and 2.71 µM
CN1CC[C@@H](NC(=O)Nc2ccc(C#N)cc2)C[C@@H]1c1nc2ccccc2[nH]1	> 100 µM	> 100 µM	> 100 µM	> 100 µM	> 100 µM	> 100 µM	> 100 µM	> 100 µM	55.6 µM	> 100 µM	> 70.4 µM	> 100 µM	> 42.3 µM	> 60.8 µM	> 100 µM	> 100 µM	> 100 µM	> 100 µM	40.5 µM	> 100 µM
Nc1ccc(C2=NNC(=O)Cc3cc4c(cc32)OCCO4)cc1Cl	7.96 µM	> 50 µM	1.51 µM	6.47 µM	9.1 µM	> 50 µM	2.02 µM	23.5 µM	3.05 µM	> 50 µM	5.42 µM	> 50 µM	5.28 µM	> 50 µM	4.13 µM	> 50 µM	0.886 µM	4.18 µM	5.27 µM	19.3 µM
O=C(/C=C/c1ccc(O)cc1)c1ccc(O)cc1	–	> 76.3 µM	–	52.1 µM	–	61.3 µM	–	9.22 µM	–	82.3 µM	–	> 100 µM	–	62.6 µM	–	70 µM	–	> 100 µM	–	50.1 µM
